Laboratory results reported in patent US20260191841A1, “TREATMENT OF CHRONIC KIDNEY DISEASE IN TYPE I DIABETES MELLITUS” (BAYER AKTIENGESELLSCHAFT, priority 2022, published 2026).

What was measured:
[1] = patients with CKD and T1D; vs placebo; cited from earlier work
[2] = patients with T2D; coadministered with an ACEI or an ARB; cited from earlier work
[3] = FIDELITY UACR mixed model, restricted to patients with UACR>=200 mg/g and eGFR between 25 and 90 ml/min/1.73 m^2; type: in vivo, human; details: FIDELITY restricted population
Description: UACR will be analyzed assuming a lognormal distribution. Assumptions for the UACR ratios to baseline at 6 months are based on the FIDELITY UACR mixed model restricted to patients with UACR>=200 mg/g and eGFR between 25 and 90 ml/min/1.73 m^2.
In the FIDELITY restricted population, the UACR ratio to baseline after 4 months was 0.61 and 0.53 after 12 months in the finerenone group. The value, using interpolation, at 6 months was estimated to be 0.59. As a conservative approach, we will assume the treatment ratio (finerenone/placebo) over 6 months to be 0.7 (i.e., the difference in UACR ratio to baseline between finerenone and placebo to be 30%). The standard deviation was calculated to range from 0.75 and 1.0 between month 4 and 12. Using linear interpolation, at month 6 it was assumed to be approximately 0.8.

Row | SMILES | albuminuria [1] | rate of kidney function decline [1] | cardiovascular morbidity [2] | progression of diabetic kidney disease [2] | UACR ratio to baseline ([3]; after 4 months, finerenone group) | UACR ratio to baseline ([3]; after 12 months, finerenone group) | UACR ratio to baseline ([3]; at 6 months, estimated using interpolation)
1 | Oc1ncnc2[nH]ncc12 [allopurinol] | did not reduce albuminuria | nor delay the rate of kidney function decline | – | – | – | – | –
2 | CCOc1ncc(C)c2c1[C@H](c1ccc(C#N)cc1OC)C(C(N)=O)=C(C)N2 [finerenone, (4S)-4-(4-cyano-2-methoxyphenyl)-5-ethoxy-2,8-dimethyl-1,4-dihydro-1,6-naphthyridine-3-carboxamide] | – | – | reduces cardiovascular morbidity | delays the progression of diabetic kidney disease | 0.61 | 0.53 | 0.59
